From patent US20060223846A1, “Aza-bridged-bicyclic amino acid derivatives as alpha4 integrin antagonists” (priority 2005, published 2006)

Assays:
α4β1 = α4β1 (Homo sapiens, UniProt P05556+P13612); experiment: Ramos Cell Adhesion Assay (α4β1 Mediated Adhesion/VCAM-1); assay type: cell-based; set-up: Ramos cells, (50 μL at 2×10^6/mL) labeled with 5 μM Calcein AM; endogenous in cells; host or cells: Ramos cells; conditions: Ramos cells on recombinant hVCAM-1; read-out: α4β1 IC50
Protocol: (§1) Ramos Cell Adhesion Assay α4β1 Mediated Adhesion/VCAM-1) Immulon 9.6 well plates (Dynex) were coated with 100 μL recombinant hVCAM-1 at 4.0 μg/mL in 0.05 M NaCO3 buffer pH 9.0 overnight at 4° C. (R&D Systems). Plates were washed 3 times in PBS with 1% BSA and blocked for 1 h @ room temperature in this buffer. PBS was removed and compounds to be tested (50 μL) were added at 2× concentration. Ramos cells, (50 μL at 2×10^6/mL) labeled with 5 μM Calcein AM (Molecular Probes) for 1 h at 37° C., were added to each well and allowed to adhere for 1 h at room temperature. Plates were washed 3× in PBS+1% BSA and cells were lysed for 15 minutes in 100 μL of 1 M Tris pH 8.0 with 1% SDS. The plate was read at 485 nm excitation and 530 nm emission.

human α4β7 = molecular target: T1, human α4β7 (Homo sapiens, UniProt P13612+P26010); experiment: α4β7-K562 Cell Adhesion Assay (α4β7 Mediated Adhesion/VCAM-1); assay type: cell-based; conditions: K562 cells expressing human α4β7 on recombinant hVCAM-1; read-out: α4β7 IC50
T1 construct: expressed in transfected cells
T1 sequence (P13612 34-1032): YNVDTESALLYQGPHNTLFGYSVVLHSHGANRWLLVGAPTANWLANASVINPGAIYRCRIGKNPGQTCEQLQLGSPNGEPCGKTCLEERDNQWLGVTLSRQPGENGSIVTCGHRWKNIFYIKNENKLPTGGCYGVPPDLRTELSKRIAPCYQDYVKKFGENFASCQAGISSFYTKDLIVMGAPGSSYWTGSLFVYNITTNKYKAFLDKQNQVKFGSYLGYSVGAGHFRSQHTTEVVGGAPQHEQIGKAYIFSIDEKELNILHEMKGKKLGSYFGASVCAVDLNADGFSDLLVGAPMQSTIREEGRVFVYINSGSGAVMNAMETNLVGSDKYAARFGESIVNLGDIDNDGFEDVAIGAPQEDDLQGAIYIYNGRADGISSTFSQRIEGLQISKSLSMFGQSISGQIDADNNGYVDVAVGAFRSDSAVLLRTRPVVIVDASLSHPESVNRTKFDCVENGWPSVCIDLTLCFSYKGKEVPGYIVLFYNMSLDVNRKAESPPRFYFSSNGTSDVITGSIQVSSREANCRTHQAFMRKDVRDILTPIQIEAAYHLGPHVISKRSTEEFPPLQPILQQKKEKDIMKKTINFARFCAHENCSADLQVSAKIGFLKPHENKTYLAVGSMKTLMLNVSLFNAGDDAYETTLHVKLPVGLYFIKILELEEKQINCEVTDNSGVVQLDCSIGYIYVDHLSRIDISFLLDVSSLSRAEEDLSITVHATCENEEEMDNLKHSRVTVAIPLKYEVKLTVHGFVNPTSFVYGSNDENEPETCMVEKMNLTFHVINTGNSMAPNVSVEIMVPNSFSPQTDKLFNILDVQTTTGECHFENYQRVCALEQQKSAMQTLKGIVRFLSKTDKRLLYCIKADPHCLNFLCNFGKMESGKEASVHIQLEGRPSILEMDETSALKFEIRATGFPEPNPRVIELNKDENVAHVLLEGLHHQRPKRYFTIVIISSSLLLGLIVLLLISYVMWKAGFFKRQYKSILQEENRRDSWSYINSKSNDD
T1 sequence (P26010 20-798): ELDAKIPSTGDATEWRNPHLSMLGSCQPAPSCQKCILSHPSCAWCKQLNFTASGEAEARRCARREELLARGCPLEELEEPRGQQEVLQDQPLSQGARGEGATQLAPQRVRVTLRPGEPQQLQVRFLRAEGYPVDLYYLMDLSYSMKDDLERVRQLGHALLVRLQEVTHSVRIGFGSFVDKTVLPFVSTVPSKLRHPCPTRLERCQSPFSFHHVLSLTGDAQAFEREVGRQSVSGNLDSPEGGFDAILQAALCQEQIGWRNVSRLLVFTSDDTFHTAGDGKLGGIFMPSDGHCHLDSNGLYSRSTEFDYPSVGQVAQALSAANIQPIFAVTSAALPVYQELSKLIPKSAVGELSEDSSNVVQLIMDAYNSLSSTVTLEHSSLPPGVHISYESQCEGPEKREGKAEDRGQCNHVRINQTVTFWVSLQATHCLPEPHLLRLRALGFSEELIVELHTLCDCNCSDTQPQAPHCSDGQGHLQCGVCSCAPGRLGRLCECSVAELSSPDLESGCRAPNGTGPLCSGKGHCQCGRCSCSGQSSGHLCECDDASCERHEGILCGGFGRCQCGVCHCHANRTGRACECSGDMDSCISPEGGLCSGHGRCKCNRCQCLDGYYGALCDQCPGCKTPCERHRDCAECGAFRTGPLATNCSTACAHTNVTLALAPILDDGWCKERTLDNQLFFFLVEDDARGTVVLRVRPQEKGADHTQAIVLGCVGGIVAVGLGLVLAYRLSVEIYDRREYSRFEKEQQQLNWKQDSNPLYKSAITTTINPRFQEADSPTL
Protocol: as §1, with “α4β7-K562” for “Ramos”, “(α4β7” for “α4β1”, “96” for “9.6”, “System).” for “Systems).”, “A stable cell line of K562 cells expressing human α4β7,” for “Ramos cells,”

α4β1, sequence (P05556 21-798, one chain of several): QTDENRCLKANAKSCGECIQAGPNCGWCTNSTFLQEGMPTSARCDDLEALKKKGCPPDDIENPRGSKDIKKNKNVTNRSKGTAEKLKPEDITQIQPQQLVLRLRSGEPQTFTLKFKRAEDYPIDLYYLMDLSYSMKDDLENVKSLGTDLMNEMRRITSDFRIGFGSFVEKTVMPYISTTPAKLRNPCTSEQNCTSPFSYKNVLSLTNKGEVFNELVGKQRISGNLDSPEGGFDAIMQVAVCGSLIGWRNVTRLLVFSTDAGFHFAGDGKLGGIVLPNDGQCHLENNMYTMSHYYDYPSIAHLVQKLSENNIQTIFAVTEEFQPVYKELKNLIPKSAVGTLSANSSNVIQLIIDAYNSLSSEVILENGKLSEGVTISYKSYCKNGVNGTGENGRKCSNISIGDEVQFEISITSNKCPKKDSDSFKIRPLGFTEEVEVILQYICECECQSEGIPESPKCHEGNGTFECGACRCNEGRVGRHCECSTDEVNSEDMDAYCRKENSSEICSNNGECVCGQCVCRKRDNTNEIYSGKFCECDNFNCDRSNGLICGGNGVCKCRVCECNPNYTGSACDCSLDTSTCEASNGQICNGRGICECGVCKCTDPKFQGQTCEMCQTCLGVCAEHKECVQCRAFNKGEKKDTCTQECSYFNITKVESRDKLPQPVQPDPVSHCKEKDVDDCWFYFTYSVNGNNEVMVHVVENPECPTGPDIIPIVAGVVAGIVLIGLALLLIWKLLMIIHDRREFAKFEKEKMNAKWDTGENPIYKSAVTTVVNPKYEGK

| Structure (SMILES) | IC50 (α4β1) [nM] | IC50 (human α4β7) [nM] |
| --- | --- | --- |
| O=C(Nc1ccc(CC(NC(=O)C2C3CCC(CC3)N2C(=O)CC2CCOCC2)C(=O)O)cc1)c1c(Cl)cncc1Cl (centres unmarked) [Cpd 41] | 11 | 30 |
| O=C(Nc1ccc(CC(NC(=O)C2C3CCC(CC3)N2C(=O)Cc2cccnc2)C(=O)O)cc1)c1c(Cl)cncc1Cl (centres unmarked) [Cpd 5] | 20 | 62 |
| O=C(Nc1ccc(CC(NC(=O)C2C3CCC(CC3)N2C(=O)CCC2CCCC2)C(=O)O)cc1)c1c(Cl)cncc1Cl (centres unmarked) [Cpd 28] | 89 | 150 |
| O=C(Nc1ccc(CC(NC(=O)C2C3CCC(CC3)N2C(=O)c2ccccc2F)C(=O)O)cc1)c1c(Cl)cncc1Cl (mixture of isomers) [Cpd 9] | 436 | 151 |
| COc1ccc(OC)c(C(=O)N2C3CCC(CC3)C2C(=O)NC(Cc2ccc(NC(=O)c3c(Cl)cncc3Cl)cc2)C(=O)O)c1 (centres unmarked) [Cpd 8] | 188 | 1020 |
| COc1ccc(CC(=O)N2C3CCC(CC3)C2C(=O)NC(Cc2ccc(NC(=O)c3c(Cl)cncc3Cl)cc2)C(=O)O)cc1 (centres unmarked) [Cpd 30] | 115 | 71 |
| O=C(Nc1ccc(CC(NC(=O)C2C3CCC(CC3)N2C(=O)Cc2ccccc2C(F)(F)F)C(=O)O)cc1)c1c(Cl)cncc1Cl (centres unmarked) [Cpd 2] | 164 | 316 |
| O=C(Nc1ccc(CC(NC(=O)C2C3CCC(CC3)N2C(=O)Nc2ccccc2)C(=O)O)cc1)c1c(Cl)cncc1Cl (centres unmarked) [Cpd 20] | 259 | 287 |
| Cc1ccc(CCN2C3CCC(CC3)C2C(=O)NC(Cc2ccc(NC(=O)c3c(Cl)cncc3Cl)cc2)C(=O)O)cc1 (centres unmarked) [Cpd 58] | 201 | 16 |
| O=C(Nc1ccc(CC(NC(=O)C2C3CCC(CC3)N2C(=O)Cc2csc3ccccc23)C(=O)O)cc1)c1c(Cl)cncc1Cl (centres unmarked) [Cpd 62] | 292 | 565 |
| COc1cccc(CC(=O)N2C3CCC(CC3)C2C(=O)NC(Cc2ccc(NC(=O)c3c(Cl)cncc3Cl)cc2)C(=O)O)c1 (centres unmarked) [Cpd 59] | 504 | 255 |
| O=C(Nc1ccc(CC(NC(=O)C2C3CCC(CC3)N2C(=O)CCN2CCCCC2)C(=O)O)cc1)c1c(Cl)cncc1Cl (centres unmarked) [Cpd 43] | 5 | 86 |
| O=C(Nc1ccc(CC(NC(=O)C2C3CCC(CC3)N2C(=O)NCc2ccccc2)C(=O)O)cc1)c1c(Cl)cncc1Cl (centres unmarked) [Cpd 25] | 72 | 379 |
| O=C(Nc1ccc(CC(NC(=O)C2C3CCC(CC3)N2C(=O)Cc2ccccn2)C(=O)O)cc1)c1c(Cl)cncc1Cl (centres unmarked) [Cpd 4] | 25 | 32 |
| O=C(Nc1ccc(CC(NC(=O)C2C3CCC(CC3)N2Cc2ccc(Cl)s2)C(=O)O)cc1)c1c(Cl)cncc1Cl (centres unmarked) [Cpd 19] | 2560 | > 5000 |
| O=C(Nc1ccc(CC(NC(=O)C2C3CCC(CC3)N2C(=O)Nc2ccc(Cl)cc2)C(=O)O)cc1)c1c(Cl)cncc1Cl (centres unmarked) [Cpd 24] | 591 | 743 |

| Structure (SMILES) | IC50 (α4β1) [nM] | IC50 (human α4β7) [nM] |
| --- | --- | --- |
| CC(C)CCC(=O)N1C2CCC(CC2)C1C(=O)NC(Cc1ccc(NC(=O)c2c(Cl)cncc2Cl)cc1)C(=O)O (centres unmarked) [Cpd 38] | 5 | 15 |
| O=C(Nc1ccc(CC(NC(=O)C2C3CCC(CC3)N2C(=O)c2c(Cl)cccc2Cl)C(=O)O)cc1)c1c(Cl)cncc1Cl (centres unmarked) [Cpd 14] | > 5000 | > 5000 |
| O=C(Nc1ccc(CC(NC(=O)C2C3CCC(CC3)N2C(=O)C#Cc2ccccc2)C(=O)O)cc1)c1c(Cl)cncc1Cl (centres unmarked) [Cpd 57] | 9 | 27 |
| O=C(Nc1ccc(CC(NC(=O)C2C3CCC(CC3)N2C(=O)c2ccccc2C(F)(F)F)C(=O)O)cc1)c1c(Cl)cncc1Cl (centres unmarked) [Cpd 12] | 460 | 739 |
| O=C(Nc1ccc(CC(NC(=O)C2C3CCC(CC3)N2C(=O)CCc2ccc(C(F)(F)F)cc2)C(=O)O)cc1)c1c(Cl)cncc1Cl (centres unmarked) [Cpd 50] | 6 | 75 |
| COc1ccccc1C=CC(=O)N1C2CCC(CC2)C1C(=O)NC(Cc1ccc(NC(=O)c2c(Cl)cncc2Cl)cc1)C(=O)O (centres unmarked) [Cpd 45] | 3 | 36 |
| CN(C)c1ccc(CC(=O)N2C3CCC(CC3)C2C(=O)NC(Cc2ccc(NC(=O)c3c(Cl)cncc3Cl)cc2)C(=O)O)cc1 (centres unmarked) [Cpd 56] | 2 | 23 |
| O=C(Nc1ccc(CC(NC(=O)C2C3CCC(CC3)N2C(=O)Nc2cccc(Cl)c2)C(=O)O)cc1)c1c(Cl)cncc1Cl (centres unmarked) [Cpd 23] | 248 | 444 |
| O=C(Nc1ccc(CC(NC(=O)C2C3CCC(CC3)N2C(=O)Nc2ccccc2Cl)C(=O)O)cc1)c1c(Cl)cncc1Cl (centres unmarked) [Cpd 22] | 380 | 670 |
| Cc1ccc(NC(=O)N2C3CCC(CC3)[C@H]2C(=O)N[C@@H](Cc2ccc(NC(=O)c3c(Cl)cncc3Cl)cc2)C(=O)O)cc1 [Cpd 21, 3-{4-[(3,5-dichloro-pyridine-4-carbonyl)-amino]-phenyl}-2-[(2-p-tolylcarbamoyl-2-aza-bicyclo[2.2.2]octane-3-carbonyl)-amino]-propionic acid] | 585 | 124 |
| O=C(Nc1ccc(CC(NC(=O)C2C3CCC(CC3)N2C(=O)CCN2CCNCC2)C(=O)O)cc1)c1c(Cl)cncc1Cl (centres unmarked) [Cpd 53] | 3 | 141 |
| O=C(Nc1ccc(CC(NC(=O)C2C3CCC(CC3)N2C(=O)Cc2cccs2)C(=O)O)cc1)c1c(Cl)cncc1Cl (centres unmarked) [Cpd 32] | 12 | 30 |
| CC(C)(C)OC(=O)N1CCN(CCC(=O)N2C3CCC(CC3)C2C(=O)NC(Cc2ccc(NC(=O)c3c(Cl)cncc3Cl)cc2)C(=O)O)CC1 (centres unmarked) [Cpd 35] | 122 | > 5000 |
| O=C(Nc1ccc(CC(NC(=O)C2C3CCC(CC3)N2C(=O)c2ccccc2Oc2ccccc2)C(=O)O)cc1)c1c(Cl)cncc1Cl (centres unmarked) [Cpd 63] | 55 | 66 |
| O=C(Nc1ccc(CC(NC(=O)C2C3CCC(CC3)N2C(=O)CCc2cc(C(F)(F)F)cc(C(F)(F)F)c2)C(=O)O)cc1)c1c(Cl)cncc1Cl (centres unmarked) [Cpd 55] | 72 | 181 |
